{
  "source": "patent US20060278218A1",
  "about": "“Non-invasive restrained whole body plethysmography for measurement of airway function in conscious mice” (priority 2005, published 2006)",
  "assay_type_in_all_cases": "in vivo, mouse",
  "key": {"[1]": {"test_system": "conscious mice", "test": "Methacholine aerosol challenge in conscious mice, double chamber plethysmography (DCP)", "conditions": "BALBc (pre-OVA) mice, n=8; provocative concentration increasing sRaw to 175% post-saline value; mean", "description": "The double chamber plethysmograph was purchased from a commercial source (PLY3351, Buxco Electronics Inc, Wilmington, N.C.). The techniques for measurement with this technique have been described previously (DeLorme, et al. and Flandre, et al.). The flow for each chamber (nasal and thoracic) of the DCP was calibrated separately by rapid injection of a known volume (0.5 mL) into the chamber; volume was matched by the integration of flow. The accuracy of calibration was checked before each test. The phase lag between the chambers was negligible (<0.01 msec up to 10 Hz). For DCP, mice were loaded into the rear of the thoracic chamber and pushed forward until the head protruded through a hole in a latex neck seal provided with the equipment. […] Computation of sRaw measured with DCP (hereinafter sRaw-DCP) followed protocols established by Pennock, et al. and later applied to mice by Flandre, et al, whereby the time lag (dT) between the thoracic and nasal flow at zero crossing (during transition between inspiration and expiration) was utilized as follows: sRaw−DCP=(Ti+Te)/(2π)×(Patm−47)×1.36 2×π×dT/(Ti+Te), Equation 2: where Ti and Te equal inspiratory and expiratory time (sec) and Patm atmospheric pressure (cm H2O). The peak dT was identified and 10 sequential breaths free from movement artifacts were measured for that period. […]"}, "[2]": {"test_system": "conscious mice", "test": "Methacholine aerosol challenge in conscious mice, restrained whole body plethysmography (RWBP)", "conditions": "for sRaw-RWBP ED175: mean; for average sRaw: one C57BL/6 mouse", "source_text": "The dynamic properties of the plethysmograph were studied by varying pressures in the chamber (John, J., B. Drefeldt, et al. (1994). “Dynamic properties of body plethysmographs and effects on physiological parameters.” J Appl Physiol 77(1): 152-9. (hereinafter John, et al.), incorporated herein by reference). A leak (3.2 sec to 36% peak pressure) was created by a Luer connector mounted in the wall of the box, which was attached to a length of tubing, a stopcock and needle (22 g, 2 cm). The leak resistance was measured to be 5.37 cm H2O/L/sec and inertance 0.029 s^2/mL. A step pressure created by (a) hammering gently the plunger of a syringe loaded to an expected volume (0.02 mL), and (b) balloon burst both peaked between 19-21 msec, with a thermal time constant (described by a single compartment) of 0.95 sec. Amplitude was examined as a function of input frequency using digitally controlled square and sinusoidal flows delivered with a piston-driven mouse ventilator (flexiVent, Scireq Corp, Montreal, Canada). Box pressure amplitude remained within 3% of the delivered volume (0.1 mL) from 1-10 Hz, and within 0.075% between 2 and 5 Hz, the range most relevant to breathing in conscious mice. Therefore the conditions were adiabatic across these frequencies. Time shifts between flow, delivered via the pneumotachograph within the box, and peak box pressure averaged less than 3 msec (range 1-6 msec) from 0.5-20 Hz generated using a broadband input generator (flexiVent, Scireq Corp). Pressure in the plethysmographic chamber was sampled differential pressure transducer 20 (TRD 5700, Buxco Electronics, Wilmington, N.C.) referenced to the atmospheric reference chamber 18 The pneumotachograph 52 (8431 Series, Hans Rudolph, Kansas City, Mo.) heated to 38-39° C. measured flow and flow-derived parameters. Data was sampled at 2500 Hz per channel using commercial hardware (Max1420 Buxco Electronics, PCI 6024E, National Instruments) and software (Biosystem XA version 2.9.4, Buxco Electronics, Inc). The pneumotachograph was calibrated by integration of the flow, injected as a known volume (0.5 mL). Box volume was calibrated by rapid injection of a known volume (0.1 mL) into the chamber between each mouse, and checked repeatedly using injections of varying volumes and quasi-sinusoidal inputs. Bias flow (0.5 L/min) was employed between recordings, and the box vented fully between methacholine challenges.\nFIGS. 9A-9D are box volume-flow plots for the experiments performed using an RWBP according to the invention. Primary waveforms (box volume, flow) are reviewed and period of peak responses based on EF50 are identified. These occurred regularly between 1.5-2.5 minutes after exposure to methacholine. FIGS. 9A-9D have a stripchart for pneumotachograph flow and plethysmographic volume. Below the stripcharts are corresponding X-Y plots of flow (Y-axis) and box volume shift (X-axis). A slope (θ) of the box volume-flow plot was measured using a protractor (accurate to 0.5 degrees) on the straightest possible segment between −1 to 1 mL/sec. Angles are measured at the transition from expiration to inspiration to minimize the contribution of heating and humidification to the box volume signal (see Agrawal K P). Gains were set to produce angles (tangents) between 40 and 75 degrees. Breaths with evidence of laryngeal braking are avoided. Specific airway resistance (sRaw) is computed from the plots as follows: sRaw=(1/tan θ)*(Patm−PH2O)*Cf*(Vbox−bwt mouse)/Vbox, Equation 1: where Patm is atmospheric pressure, PH2O is water vapor pressure, Cf is a scaling factor for X and Y axes, Vbox is volume of the outer chamber, and bwt mouse is the weight of the mouse in units of grams.\nChallenges were conducted at the same time of day (morning or afternoon) for each mouse. Ambient temperatures in the laboratory ranged from 21-23° C. and humidity ranged from 25-45%. Baseline recordings were obtained after 2 min acclimation to the chamber. […]"}, "[3]": {"test_system": "anesthetized, tracheotomized mice", "test": "Methacholine challenge in anesthetized mice using forced oscillation technique (FOT)", "conditions": "for Raw ED175: provocative concentration increasing Raw-FOT to 175% baseline, mean", "description": "The methods for FOT have been previously described in Tomioka, S., J. H. Bates, et al. (2002). “Airway and tissue mechanics in a murine model of asthma: alveolar capsule vs. forced oscillations.” J Appl Physiol 93(1): 263-70. (hereinafter Tomioka, et al.), incorporated herein by reference. Mice were anesthetized with ketamine (50 mg/kg) and xylazine (5 mg/kg) (Butler Co, Dublin, Ohio) intra-peritoneally, and a tracheostomy performed with a 19 g cannula (Becton Dickinson and Company Franklin Lakes, N.Y.). Mice were paralyzed with pancuronium (1 mg/ml, Baxter Healthcare Corp. Irvine, Calif.). Supplemental xylazine and ketamine (½ doses) were provided every ½ hour. Ventilation was set at frequency of 200 BPM, VT 0.3 ml, positive end-expiratory pressure (PEEP) 3.0 cm H20, and oxygen was supplemented throughout. Repeated measurements were performed with a commercial data acquisition system for input impedance between 1-20 Hz (Quick Prime 3 analyzer, FlexiVent System, SCIREQ Corp, Montreal, Quebec). A constant phase model (Gomes, R. F., X. Shen, et al. (2000). “Comparative respiratory system mechanics in rodents.” J Appl Physiol 89(3): 908-16 (hereinafter Gomes, et al.)., incorporated herein by reference) was employed to obtain airway resistance Raw, tissue resistance coefficient Gti, and tissue elastance coefficient Hti.\nAerosols were delivered directly into the tracheal cannula during lung inflation during mechanical ventilation (flexiVent, Scireq Corp, Montreal, Quebec). Ten second nebulization periods were used, followed immediately by a series (8-15) of measurements. Prior to each measurement of lung mechanics, the lung was inflated to total lung capacity (TLC) (30 cm H2O airway pressure). Forced oscillations during apnea (3 seconds in duration) were applied every 17 seconds for 5 minutes. Dosage ranges were pre-determined in pilot studies to evoke between 10 and >75% increase in airway resistance (Raw). Methacholine in C57 mice was delivered at 0 (saline), 4, 8, and 16 mg/mL, and in AJ we used 0, 2, 4, and 8 mg/mL. The concentration of methacholine that provoked an increase in Raw-FOT to 175% baseline (ED 175) was determined by log-linear interpolation as described above."}},
  "note": "“And” between values parts separate entries of the source, which are not always exact repeats. Equal values may be shown once. Marks after values point to notes of the source that are not given here.",
  "data": [
    {"smiles": "CC(=O)OC(C)C[N+](C)(C)C", "note": "(centres unmarked) [methacholine]", "values": [
      {"measurement": "sRaw-DCP ED175", "setting": "[1]", "value": "7.1^a mg/mL"},
      {"measurement": "sRaw-RWBP ED175", "setting": "[2]; AJ mice, n=18, provocative concentration increasing sRaw to 175% post-saline value", "value": "4.49^a,b mg/mL"},
      {"measurement": "sRaw-RWBP ED175", "setting": "[2]; BALBc (no OVA) mice, n=18, provocative concentration increasing sRaw to 175% post-saline value", "value": "10.9^a mg/mL"},
      {"measurement": "sRaw-RWBP ED175", "setting": "[2]; BALBc (post-OVA) mice, n=8, 48 hrs following allergen challenge in sensitized group", "value": "5.0 mg/mL and 5.0^a,c mg/mL"},
      {"measurement": "sRaw-RWBP ED175", "setting": "[2]; BALBc (pre-OVA) mice, n=8, prior to sensitization and aerosol exposure to ovalbumin", "value": "9.2 mg/mL and 9.2^ mg/mL"},
      {"measurement": "sRaw-RWBP ED175", "setting": "[2]; C57 mice, n=18, provocative concentration increasing sRaw to 175% post-saline value", "value": "40.5^b mg/mL"},
      {"measurement": "change in tidal volume", "setting": "[2]; conscious C57, AJ and BALBc mice, any strain (FIG. 10C)", "value": "no change"},
      {"measurement": "change in sRaw-RWBP", "setting": "[2]; conscious C57, AJ and BALBc mice, dose response (FIG. 10A)", "value": "significant dose-dependent increase"},
      {"measurement": "change in respiratory frequency", "setting": "[2]; conscious C57, AJ and BALBc mice, dose response (FIG. 10B)", "value": "significant decrease"},
      {"measurement": "average sRaw", "setting": "[2]; methacholine aerosol dose 10 mg/mL (FIG. 9B)", "value": 0.75, "unit": "cm·s"},
      {"measurement": "average sRaw", "setting": "[2]; methacholine aerosol dose 50 mg/mL (FIG. 9C)", "value": 0.86, "unit": "cm·s"},
      {"measurement": "average sRaw", "setting": "[2]; methacholine aerosol dose 100 mg/mL (FIG. 9D)", "value": 1.61, "unit": "cm·s"},
      {"measurement": "period of peak responses based on EF50 after exposure", "setting": "[2]; time after exposure to methacholine", "value": "1.5 to 2.5", "unit": "min"},
      {"measurement": "Raw ED175", "setting": "[3]; AJ mice, n=18", "value": "2.3^a mg/mL"},
      {"measurement": "Raw ED175", "setting": "[3]; BALBc (pre-OVA) mice", "value": 9.48, "unit": "mg/mL"},
      {"measurement": "Raw ED175", "setting": "[3]; C57 mice, n=18", "value": 8.3, "unit": "mg/mL"},
      {"measurement": "change in Raw", "setting": "[3]; anesthetized, tracheotomized C57, AJ and BALBc mice, all 3 strains (FIG. 11)", "value": "dose-dependent increase"}
    ]}
  ]
}
